Consider 2 molecules from patent US20090104297A1, “HERBAL COMPOSITION FOR TREATMENT OF INFECTIONS CAUSED BY DERMATOPHYTES” (Piramal Life Sciences Limited, priority 2006, published 2009).

Test [1] has as its system Trichophyton mentagrophytes. In words: Agar well diffusion method, zone of inhibition. The format is cell-based. The settings on record: preparative HPLC fractions; concentration not given. How it is done: The given extracts were tested against a panel of microorganisms, including Candida albicans 10231, Microsporum gypseum and Trichophyton mentagrophytes.
The strains were cultured overnight at 30° C. in Sabouraud dextrose agar. Colonies from subcultures were suspended in saline and vortexed to give a transmittance of 75-80% at 530 nm (T530 nm≈10^8 cfu/ml). Predecided volume of inoculum was mixed with molten agar at 40° C. and poured into sterile petri plates. Plates were allowed to set and solidify. Then wells (6 mm in diameter) were cut from the agar and 0.05 ml of extract solution was delivered into them. After incubation for 48 hours, at 28° C., all plates were examined for any zones of growth inhibition, and the diameters of these zones were measured in millimeters.
The stock solutions of 10 mg/ml of extracts of example 1 was prepared by suspending extract in methanol and sonicating for 10 seconds. Further dilutions were made to get a concentration range of 5, 2 and 1 mg/ml.
Preparative TLC samples were analyzed for the activity by Agar well diffusion method as described in example 2.
All preparative HPLC fractions were analyzed for activity by Agar well diffusion method as described in example 2.
A general note: A growth-free zone around the sample is the usual read-out of agar diffusion tests.

Test [2] has as its system Trichophyton mentagrophytes. Nature of the test: In vitro susceptibility testing (MIC) by macro broth dilution method (CLSI M-38). The format is cell-based. The settings on record: for MIC: Trichophyton mentagrophytes. On the procedure: (§1) In vitro susceptibility testing (Minimum Inhibitory Concentration) by macro broth dilution method—(CLSI method-M-38) was carried out as described in literature.
(§2) Reference method for broth dilution antifungal susceptibility testing of yeasts-Approved standard. NCCLS document M27-A. National Committee for Clinical Laboratory Standards, Wayne, Pa.;
(§3) Reference method for broth dilution antifungal susceptibility testing of filamentous fungi-Approved standard. NCCLS document M38-A. National Committee for Clinical Laboratory Standards, Wayne, Pa.
(§4) Candida albicans, Trichophyton mentagrophytes and Micropsporum gypseum were used as test organisms.
(§5) RPMI 1640 (Sigma) with L-glutamine but without sodium bicarbonate and buffered at pH 7.0 with 3-(N-morpholino) propanesulfonic acid monosodium salt (MOPS), was the medium used for broth macro dilution susceptibility testing.
(§6) The extract of example 1, compound 1 and ketoconazole as standard.
(§7) The samples were prepared in methanol at 100 times the final concentration, followed by further dilutions (1:10) in RPMI 1640 medium to yield ten times the final strength required for the test. Purified component was also diluted in the same manner in methanol alone. Aliquots (0.1 ml) of each extract were dispensed into tubes. The final concentrations of extract ranged from 100-10 μg/ml.
(§8) The cultures were grown on PDA agar slants at 28° C. for 7 days. The growth was covered with sterile saline and scraped to get a growth suspension. The resulting mixture of conidia or sporangiospores and hypal fragments was transferred to a sterile test tube. The heavy particles were allowed to settle and upper homogenous suspension was transferred to another tube. These suspensions were adjusted to an optical density that ranged from 0.09 to 0.11 (80 to 82% transmittance). These stock suspensions were further diluted 1:100 with medium to obtain test inoculum (0.4×10^4 to 5×10^4 cfu/ml).
(§9) Finally the tubes were inoculated with 0.1 ml of sample dilutions and 0.9 ml of the above-prepared inoculum. […] Growth control tube received only diluent without sample. […]

The test system of test [3] is Micropsporum gypseum. The test is described as above. The settings on record: for MIC: Nannizzia gypsea. Type of test: cell-based, Microsporum gypseum. How it is done: as §1, §2, §3, §4, §5, §6, §7, §8, §9
For test [4], the system named is Candida albicans. The test is described as above. The format is cell-based. On the procedure:
as §1, §2, §3, §4, §5, §6
The samples were prepared in methanol at 100 times the final concentration, followed by further dilutions (1:10) in RPMI 1640 medium to yield ten times the final strength required for the test. Purified component was also diluted in the same manner in methanol alone. Aliquots (0.1 ml) of each extract were dispensed into tubes. The final concentrations of extract ranged from 100-10 μg/ml. […]

Converted amounts (≈) assume the structure as drawn. Like-named read-outs stand apart in the source and are kept apart here.

By MIC is commonly meant the least concentration at which growth counts as inhibited. For the molecule `COc1cc2[nH]c3ccccc3c2cc1C` [Compound 1, 2-methoxy-3-methyl-9H-carbazole], the “zone of inhibition (tested against Trichophyton mentagrophytes culture)” value in test [1] was greater than 25 mm. For the same molecule, the MIC in test [2] (48 h, pH 7, read-out: MIC values, Trichophyton mentagrophytes) worked out at 6 µg/mL (≈ 28.4 µM); in test [3] (48 h, pH 7, read-out: MIC values, Microsporum gypseum) it was 4 µg/mL (≈ 18.9 µM); in test [4] (24 h, pH 7, read-out: MIC values, Candida ablicans), 30 µg/mL (≈ 142 µM). Also, in test [2] (macro broth dilution), the “MIC against dermatophytes versus ketoconazole (conclusion of Table 3), Trichophyton mentagrophytes” value is given as “Conclusion: MIC of compound 1 against dermatophytes is comparable with ketoconazole”. Further, the “MIC against dermatophytes versus ketoconazole (conclusion of Table 3), Microsporum gypseum” value in test [3] (macro broth dilution) is “Conclusion: MIC of compound 1 against dermatophytes is comparable with ketoconazole”.

For the molecule `CC(=O)N1CCN(c2ccc(OCC3COC(Cn4ccnc4)(c4ccc(Cl)cc4Cl)O3)cc2)CC1` (stereo not drawn) [Ketoconazole, ketoconazole, reference compound], the MIC in test [2] (macro broth dilution, RPMI 1640 pH 7.0, 28° C. for 48 hours, 100% growth inhibition, read-out: MIC values, Trichophyton mentagrophytes) is 4 µg/mL (≈ 7.53 µM); in test [3] (macro broth dilution, RPMI 1640 pH 7.0, 28° C. for 48 hours, 100% growth inhibition, read-out: MIC values, Microsporum gypseum) it was 4 µg/mL (≈ 7.53 µM); in test [4] (macro broth dilution, RPMI 1640 pH 7.0, 37° C. for 24 hours, 100% growth inhibition, read-out: MIC values, Candida ablicans) it was 5 µg/mL (≈ 9.41 µM).
